Test results reported in the NIST ThermoML archive (doi:10.1021/je900878j).

Conditions: 101.33 kPa, Liquid; for electrical conductivity: Symmetrical Wheatstone bridge; for viscosity: Capillary tube (Ostwald / Ubbelohde) method; for mass density: Vibrating tube method

CCn1cc[n+](C)c1.O=S(=O)([N-]S(=O)(=O)C(F)(F)F)C(F)(F)F
Conditions	electrical conductivity [S/m]	mass density [kg/m3]	viscosity [mPa·s]
248.15 K	0.0705	–	–
258.15 K	0.1475	–	–
263.15 K	–	–	175.1
268.15 K	0.2671	–	128.8
278.15 K	0.4347	–	75.13
288.15 K	0.6526	–	47.78
293.15 K	–	–	39.07
298.15 K	0.921	1519.3	32.46
303.15 K	1.074	1514.2	27.3
313.15 K	1.414	1504.3	19.97
323.15 K	1.799	1494.3	15.17
333.15 K	2.224	1484.4	11.87
343.15 K	2.689	–	9.54
353.15 K	3.189	–	7.83

CCCCn1cc[n+](C)c1.F[B-](F)(F)F [1-butyl-3-methylimidazolium tetrafluoroborate]
Conditions	electrical conductivity [S/m]	mass density [kg/m3]	viscosity [mPa·s]
258.15 K	0.02318	–	–
268.15 K	0.05477	–	–
278.15 K	0.1137	–	–
288.15 K	0.2116	–	–
293.15 K	–	–	141.1
298.15 K	0.3587	1202.4	107.6
303.15 K	0.4543	1198.6	83.3
313.15 K	0.6913	1191.6	52.81
323.15 K	0.9942	1184.5	35.53
333.15 K	1.364	1177.3	25.11
343.15 K	1.8	–	18.48
353.15 K	2.301	–	14.06

CCn1cc[n+](C)c1.N#CN=C=[N-] [1-ethyl-3-methylimidazolium dicyanamide]
Conditions	electrical conductivity [S/m]	mass density [kg/m3]	viscosity [mPa·s]
238.15 K	0.1546	–	–
248.15 K	0.3404	–	–
258.15 K	0.6305	–	75.38
263.15 K	–	–	56.81
268.15 K	1.035	–	44.24
273.15 K	–	–	35.22
278.15 K	1.556	–	28.59
288.15 K	2.189	–	19.81
293.15 K	–	–	16.85
298.15 K	2.928	1100.8	14.5
303.15 K	3.342	1097.5	12.62
313.15 K	4.226	1091	9.8
323.15 K	5.194	1084.4	7.83
333.15 K	6.236	1077.9	6.43
343.15 K	7.343	–	5.36
353.15 K	8.509	–	4.55

CCn1cc[n+](C)c1.F[B-](F)(F)F [1-ethyl-3-methylimidazolium tetrafluoroborate]
Conditions	electrical conductivity [S/m]	mass density [kg/m3]	viscosity [mPa·s]
238.15 K	0.04188	–	–
248.15 K	0.1088	–	–
258.15 K	0.2333	–	–
268.15 K	0.4316	–	–
269.15 K	–	–	145
273.15 K	–	–	114.1
278.15 K	0.7168	–	86.88
288.15 K	1.096	–	54.1
293.15 K	–	–	44.19
298.15 K	1.573	1288.8	36.17
303.15 K	1.847	1285	30.13
313.15 K	2.466	1277.5	21.77
323.15 K	3.176	1269.9	16.35
333.15 K	3.97	1262.4	12.7
343.15 K	4.843	–	10.12
353.15 K	5.794	–	8.23
